Test results: patent publication US20090211893A1, “Photo-Activatable Amino Acids” (priority 2005, published 2009)

Tests used:
COS7 cells [1] = assay: Cell viability by trypan blue exclusion; assay type: cell-based, monkey; settings: LM-2 medium supplement; percent ± SD of viable cells (n = 6)
Text: Unnatural amino acids frequently are toxic to cells. To find out if this is the case for photo-amino acids of the invention, we monitored in COS7 cells protein biosynthesis by incorporation of [^3H]Phe and viability by trypan blue exclusion of cells grown in the presence or absence of the photo-amino acids photo-Leu, photo-Met and photo-Ile. Due to the lack of two essential amino acids in the growth medium, protein biosynthesis is reduced to about 65% of that in a full growth medium. […] Although cells grew slightly slower than in full growth medium, viability (Table 2) and cell morphology (not shown) were unaffected.

Insig-1 and PGRMC1 = assay: Photo-crosslinking of Insig-1 and PGRMC1 with immunoprecipitation and western blotting; assay type: cell-based, human; settings: COS7 cells, UV-irradiated, IP anti-HA, blot anti-myc
Text: Cells were UV-irradiated or not irradiated as indicted, lysed and subjected to immunoprecipitation (IP) with anti-HA or anti-myc antibodies as indicated. Immunoprecipitated proteins were separated by SDS-PAGE and probed (WB) for the presence of cross-links with anti-myc antibody or anti-HA antibody as indicated. The small difference in apparent molecular weight of the cross-link is due to different percentage of SDS-PAGE gels used. The presence of uncrosslinked Insig-1 in the left lanes indicates non-covalent co-immunoprecipitation. The strong band in lanes 3 and 4 (IgG-HC) is crossreacting IgG heavy chain.
COS7 (monkey kidney) cells were grown in DMEM high glucose (Gibco no. 11995; with L-glutamine and Na-pyruvate)+10% FCS. […]
The methods of the invention have been applied to the study of protein-protein interactions between membrane proteins. […] To detect the cross-linked proteins, detergent extracts were immunoprecipitated for PGRMC1 with anti-HA antibody and precipitates analyzed for Insig-1 by western blotting with anti-myc antibody. If cells were grown in the absence of photo-Met, only a small amount of co-immunoprecipitated Insig-1, but no cross-linked band was detected (FIG. 6a, lane 2). […] An identical band was detected using the inverted order of detection, i.e. immunoprecipitation with anti-myc followed by blotting with anti-HA antibody (FIG. 6a, lane 3). […]

COS7 cells [2] = assay: Cell viability after UV irradiation by trypan blue exclusion; assay type: cell-based, monkey
caveolin-1 = assay: Photo-crosslinking of transfected caveolin-1 in COS7 cells; assay type: cell-based, human; settings: irradiated samples, COS7 cells in LM-4
Experimental: FIG. 3: Photo-crosslinking induced by photo-amino acids. COS7 cells (panels a,b) or HeLa cells (panel c) were grown in LM-4 (panel a) or LM-2 (panels b,c) in the absence or presence of L-photo-Leu (pL), L-photo-Met (pM) or DL-photo-Ile (pl) or mixtures of them (pLM or PLMI) followed by UV irradiation (+) or no irradiation (−). cross-linked products formed after UV-irradiation were detected by SDS-PAGE followed by western blotting using (a) anti-caveolin 1 to detect overexpressed caveolin 1, (b) anti-stomatin to detect endogenous stomatin or (c) anti-EEA1 to detect endogenous EEA1. In panel b, lanes 8 and 9 show cross-linking with two different concentrations of the chemical cross-linker DSS for comparison of cross-linking efficiency. In panel c, photocrosslinking of endogenous EEA1 by photo-Leu and photo-Met is compared to chemical cross-linking using DSS or para-formaldehyde (PFA) as indicated. Note that chemical cross-linking leads to protein aggregates that are not resolvable by SDS-PAGE while photocrosslinking identifies more than six discrete cross-linked bands.
COS7 (monkey kidney) cells were grown in DMEM high glucose (Gibco no. 11995; with L-glutamine and Na-pyruvate)+10% FCS. Typically, 3 cm2 of cells are needed for a cross-linking experiment with detection by western blotting. At about 70%, medium was replaced by LM-4 (DMEM lacking Met, Leu, Ile and Val and phenol red, supplemented with 5% dialyzed FCS) or by LM-2 (LM-4+1 mM of each Ile and Val). Photo-amino acids were added to a final concentration of 4 mM photo-Leu and photo-Ile, 1.7 mM photo-Met and cells were cultivated for further 22 h followed by washing with PBS and UV-irradiation using a 200 W high pressure mercury lamp (Oriel Photomax) with a glass filter to remove wavelengths shorter 310 nm. The samples were placed at a distance of 38 cm to the light source, corresponding to a illuminated area of 105 mm diameter. […] We used an irradiation time 1-3 min for experiments with living cells. […] Lysis of cells, SDS-PAGE and western blotting were done as described^33. […]

## CC1(CCC(N)C(=O)O)N=N1 [photo-Met, L-2-amino-5,5′-azi-hexanoic acid]
COS7 cells [1]
  Cell viability: 99.8 ± 0.1%
Insig-1 and PGRMC1
  Insig-1×PGRMC1 cross-linked band: a strong band appeared
COS7 cells [2]; 10 min UV
  Cell viability: 99.4 ± 0.3%
COS7 cells [2]; 10 min UV + 1 h chase
  Cell viability: 91.9 ± 1.4%
COS7 cells [2]; 30 min UV
  Cell viability: 98.7 ± 0.4%
COS7 cells [2]; 30 min UV + 1 h chase
  Cell viability: 17.4 ± 5.3%
caveolin-1
  formation of covalent caveolin dimers upon UV irradiation: significant formation of a cross-linked dimer
